Values of other authors as cited in patent US20090093463A1, “NOVEL COMPOUNDS OF SUBSTITUTED AND UNSUBTITUTED ADAMANTYL AMIDES” (AGOURON PHARMACEUTICALS INC., priority 2004, published 2009).

How the values were obtained:
11-β-hsd-1 [1] = target: T1, 11-β-hsd-1 (Homo sapiens, UniProt P28845); conditions: ingestion, normal subjects
T1 construct: host or cells: normal subjects (in vivo)

11-β-hsd-1 [2] = target: T1, 11-β-hsd-1; conditions: healthy human volunteers

T1 sequence (P28845 whole entry): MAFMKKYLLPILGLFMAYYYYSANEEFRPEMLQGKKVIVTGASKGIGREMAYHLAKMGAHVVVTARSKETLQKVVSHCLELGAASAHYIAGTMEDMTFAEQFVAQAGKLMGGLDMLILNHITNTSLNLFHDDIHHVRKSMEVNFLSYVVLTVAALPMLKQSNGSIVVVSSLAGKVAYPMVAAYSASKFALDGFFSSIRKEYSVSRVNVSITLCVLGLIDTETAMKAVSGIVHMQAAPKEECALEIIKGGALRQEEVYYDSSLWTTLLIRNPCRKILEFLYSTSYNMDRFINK

reduction of intraocular pressure (11-β-hsd-1 [1]): 20% | hepatic insulin sensitivity (11-β-hsd-1 [2]): improved
Structure (SMILES): CC1(C)[C@@H](OC(=O)CCC(=O)O)CC[C@]2(C)[C@H]3C(=O)C=C4[C@@H]5C[C@@](C)(C(=O)O)CC[C@]5(C)CC[C@@]4(C)[C@]3(C)CC[C@@H]12 [carbenoxolone]
